From patent US7829565B2, “Indole derivatives as serotonin reuptake inhibitors” (Merck Patent GmbH, priority 2003, dated 2010) come the findings set out here.

SMILES strings stand for the structures.

The target in one assay is T1, 5-HT1A receptors (Rattus norvegicus, UniProt P19327).
T1 construct: from tissue; host or cells: hippocampus (membranes)
T1 sequence (P19327 1-422): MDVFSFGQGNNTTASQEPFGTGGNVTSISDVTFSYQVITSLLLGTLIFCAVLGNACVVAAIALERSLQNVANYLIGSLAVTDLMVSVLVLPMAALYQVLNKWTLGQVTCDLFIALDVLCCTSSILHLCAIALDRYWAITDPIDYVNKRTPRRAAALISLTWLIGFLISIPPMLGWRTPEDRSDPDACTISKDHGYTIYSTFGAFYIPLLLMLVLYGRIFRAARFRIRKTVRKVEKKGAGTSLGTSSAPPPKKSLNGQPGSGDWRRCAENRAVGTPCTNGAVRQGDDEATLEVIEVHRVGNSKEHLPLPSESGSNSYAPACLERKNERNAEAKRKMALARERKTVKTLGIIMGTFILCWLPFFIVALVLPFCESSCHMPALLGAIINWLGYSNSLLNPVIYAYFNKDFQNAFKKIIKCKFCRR
The experiment in a line: 5-HT1A receptor binding test. An excerpt: (§1) In particular, they inhibit 5-HT reuptake. […] Due to a 5-HT-agonistic action and 5-HT reuptake inhibition, serotonin remains in the synaptic cleft for longer and the serotonin action is reinforced. Active ingredients having such properties are therefore particularly suitable as antidepressants and anxiolytics. The compounds of the formula I inhibit the binding of tritiated serotonin ligands to hippocampal receptors (Cossery et al., European J. Pharmacol. 140 (1987), 143-155) and synaptosomal serotonin reuptake (Sherman et al., Life Sci. 23 (1978), 1863-1870).
The 5-HT1A-agonistic action can be measured in vitro, for example, with the aid of the (serotonin) binding test, as described by Matzen et al. (J. Med. Chem., 43 (2000), 1149-57), in particular on page 1156 with reference to Eur. J. Pharmacol., 140 (1987), 143-155. In addition, the 5-HT1A-agonistic action can be measured with the aid of the GTPgammaS test described by Newman-Tancredi et al. (Eur. J. Pharmacol. 307 (1996), 107-11).
Many of the compounds synthesised have nanomolar affinity to the 5-HT1A receptors and nanomolar reuptake inhibition of serotonin. • 5-{4-[4-(5-Cyano-2-oxo-2,3-dihydro-1H-indol-3-yl)butyl]piperazin-1-yl}-benzofuran-2-carboxamide

Another assay addresses T2, serotonin reuptake (Rattus norvegicus, UniProt P31652).
T2 construct: synaptosomal serotonin reuptake (Sherman et al., Life Sci. 23 (1978), 1863-1870); from tissue
The experiment in a line: serotonin reuptake inhibition (SSRI). The class given is biochemical.
Source text: as §1
For in-vitro determination of 5-HT reuptake inhibition, synaptosomal reuptake inhibition (Wong et al., Neuropsycho-pharmacology 8 (1993), 22-33) and p-chloroamphetamine antagonism (Fuller et al. J. Pharmacol. Exp. Ther. 212 (1980), 115-119) is measured. Serotonin reuptake inhibition can in addition also be investigated with the aid of the Waldmeier method ex vivo in the brain tissue of mice (European J. Pharmacol. 1977, 46, 387-92), and by microdialysis, which is described by DiChiara (Trends in Pharmacol. Sci., 11 (1990), 116-121). To this end, a physiological solution is perfused through a microdialysis container implanted into a rat brain. During this perfusion, the solution takes up the neurotransmitters liberated in the brain and is subsequently analysed. […]

A word on the IC50: it is the concentration needed to halve the response being measured.

T2 sequence (P31652 whole entry): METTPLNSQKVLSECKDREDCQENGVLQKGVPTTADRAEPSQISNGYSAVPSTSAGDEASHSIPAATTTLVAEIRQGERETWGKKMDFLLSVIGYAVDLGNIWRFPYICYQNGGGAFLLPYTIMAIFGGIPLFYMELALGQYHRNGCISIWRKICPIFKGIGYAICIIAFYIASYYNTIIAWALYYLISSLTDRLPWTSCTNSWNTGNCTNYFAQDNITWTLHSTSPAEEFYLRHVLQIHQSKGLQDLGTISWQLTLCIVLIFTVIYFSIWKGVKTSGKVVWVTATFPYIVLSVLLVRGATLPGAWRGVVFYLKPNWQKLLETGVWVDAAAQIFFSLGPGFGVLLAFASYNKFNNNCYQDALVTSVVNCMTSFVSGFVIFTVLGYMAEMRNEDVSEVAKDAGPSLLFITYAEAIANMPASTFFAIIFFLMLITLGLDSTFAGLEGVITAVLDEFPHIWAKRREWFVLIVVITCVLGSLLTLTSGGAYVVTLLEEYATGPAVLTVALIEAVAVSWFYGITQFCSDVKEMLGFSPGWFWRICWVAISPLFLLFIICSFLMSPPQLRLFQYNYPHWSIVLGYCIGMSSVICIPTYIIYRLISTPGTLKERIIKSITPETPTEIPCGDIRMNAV

Take `N#Cc1cc2c(CCCCN3CCN(c4ccc5oc(C(N)=O)cc5c4)CC3)c[nH]c2cc1O` [5-{4-[4-(5-cyano-6-hydroxy-1H-indol-3-yl)butyl]piperazin-1-yl}-benzofuran-2-carboxamide]: the IC50 on 5-HT1A receptors came to 18 nM; on serotonin reuptake, 2.7 nM.
The like results for `N#Cc1ccc2c(c1)C(CCCCN1CCN(c3ccc4oc(C(N)=O)cc4c3)CC1)C(=O)N2` (stereo not shown) [5-{4-[4-(5-cyano-2-oxo-2,3-dihydro-1H-indol-3-yl)butyl]-piperazin-1-yl}benzofuran-2-carboxamide] were, in that order, 1.7 nM and 2.9 nM.
